Reference: patent US20190133997A1, “ARTEMISININ ANALOG, AND USE, METHOD, AND COMPOSITION FOR PROMOTING LIPID CATABOLISM AND IMPROVING SUGAR METABOLISM” (FUDAN UNIVERSITY, priority 2016, published 2019)

Tests used:
high fat-fed mice [1] = experiment: Intraperitoneal artemether, cold exposure and UCP1 immunohistochemistry of subcutaneous fat in high fat-fed mice; type: in vivo, Male C57BL/6J mice; settings: high-fat diet, intraperitoneal 20 mg/kg twice a week, eight weeks
Description: The mice were breeded in the SPF animal laboratory of the Laboratory Animal Center of Fudan University at a room temperature of 21° C.-23° C. with a 12-hour light/dark cycle. […] When the mice were grown to 8-week old, they were randomly divided into a control group and an administration group, with 8 mice in each group. While the mice were fed with a high-fat diet, artemether was injected intraperitoneally. Artemether for intraperitoneal injection was stored at 4° C. in coconut oil at a storage concentration of 6 mg/ml (20 mMol/L), and protected from light. Mice in administration group were injected with artemether at a dose of 20 mg/kg weight. Administration was twice a week for eight weeks. Mice were fasted and housed in a breeding box at 4° C. The rectal temperature was measured every 2 hours. The mice were sacrificed by cervical dislocation after 6 hours, and the inguinal fat was removed for histological analysis. The histological analysis including tissue fixation, paraffin embedding, sectioning and immunohistochemistry experiment of UCP1 was commissioned by Shanghai Saige Biotech Co., Ltd.

[2] = test system: obese mice induced by high-fat diet; experiment: Subcutaneous artemether, glucose and insulin tolerance tests in high-fat diet obese mice; type: in vivo, Male C57BL/6J mice; settings: subcutaneous injection, eight weeks
Description: The mice were breeded in the SPF animal laboratory of the Laboratory Animal Center of Fudan University at a room temperature of 21° C.-23° C. with a 12-hour light/dark cycle. […] When the mice were grown to 8-week old, they were randomly divided into a control group and an administration group, with 8 mice in each group. While the mice were fed with a high-fat diet, artemether was injected subcutaneously. Artemether was diluted in PBS at a concentration of […], and injected into bilateral inguinal region, with 200 μl being injected into each side. Mice in control group were injected with the same volume of PBS. Administration was continued for eight weeks.
The mice were fasted for 12-16 hours and injected intraperitoneally with glucose injection at a dose of […]. At 0 min, 30 min, 60 min, 90 min, and 120 min after injection, blood was collected from the tail vein, and blood glucose was measured with OneTouch ExtraEasy glucometer and OneTouch ExtraEasy blood glucose test strips and the results were recorded.
Insulin was injected intraperitoneally at a dose of 0.75 U/kg weight. At 0 min, 15 min, 30 min, 45 min and 60 min after injection, blood was collected from the tail vein, and blood glucose was measured.

high fat-fed mice [3] = experiment: Intraperitoneal artemether, serum lipid indicators in high-fat diet mice; type: in vivo, Male C57BL/6J mice; settings: intraperitoneal 20 mg/kg twice a week, eight weeks
Description: The mice were breeded in the SPF animal laboratory of the Laboratory Animal Center of Fudan University at a room temperature of 21° C.-23° C. with a 12-hour light/dark cycle. […] When the mice were grown to 8-week old, they were randomly divided into a control group and an administration group, with 8 mice in each group. While the mice were fed with a high-fat diet, artemether was injected intraperitoneally. Artemether for intraperitoneal injection was stored at 4° C. in coconut oil at a storage concentration of 6 mg/ml (20 mMol/L), and protected from light. Mice in administration group were injected with artemether at a dose of 20 mg/kg weight. Administration was twice a week for eight weeks.
The mice were anesthetized with 10% chloral hydrate and blood was taken from the orbit. The whole blood was centrifuged at 300 rpm for 5 min at 4° C.
Serum was taken and the serum indicators were measured by lipid calibrator Cfas Lipid, high-density lipoprotein Cfas, and low density lipoprotein Cfas, as well as detection kits for related indicators.

[4] = test system: 3T3-L1 white preadipocytes; experiment: Artemether-induced browning of 3T3-L1 white preadipocytes during differentiation (morphology, UCP1 mRNA by Real time qPCR); type: cell-based; settings: vs control, concentration-dependent tendency
Description: 2.5×10^5 3T3-L1 white preadipocytes were seeded in a 3.5 cm cell culture dish, and cultured for 3 days in a maintenance medium. Cells proliferated to contact inhibition. 48 hours after the contact inhibition was reached, the medium was changed to induced differentiation medium, and the induced differentiation mixture including 0.5 mMol/L 3-isobutyl-1-methylxanthine (Mix), 1 μMol/L dexamethasone (Dex) and 1 μg/ml insulin (Insulin) was added. The induced differentiation mixture is referred to as MDI for short. The day of adding MDI was defined as Day 0 of differentiation. After 2 days of culture in the above medium, fresh induced differentiation medium was replaced, and 1 μg/ml insulin was added to the medium. After another 2 days of culture, the fresh induced differentiation medium was replaced, and the medium was changed every other day until the culture was differentiated to Day 8. […]
3T3-L1 differentiated to mature was induced in a 3.5 cm culture dish, with the method of differentiation referring to Method 1.4.1. […] The precipitate was dissolved in 60 μl DEPC water, and quantified by Colibri Tepertec and stored at −80° C. […]
The relative amount of mRNA was calculated according to the AACT method, with 18S being used as an internal reference. […]

[5] = rodent models, high concentrations; no clear evidence of dose and timing; cited from earlier work

Compound: CO[C@H]1O[C@@H]2O[C@@]3(C)CC[C@H]4[C@H](C)CC[C@@H]([C@H]1C)[C@@]24OO3 [artemether]
- body temperature in an environment of 4° C. (high fat-fed mice [1]): significantly higher than that of mice in control group
- UCP1 expression in subcutaneous fat (immunohistochemistry) (high fat-fed mice [1]; after 6 hours at 4° C.): exhibited significant UCP1 expression
- glucose tolerance [2]: significantly better than that of mice in control group
- insulin tolerance [2]: significantly better than that of mice in control group
- Serum cholesterol (high fat-fed mice [3]): significantly decreased
- high-density lipoprotein (HDL) in the serum (high fat-fed mice [3]): not different from the control group
- serum low density lipoprotein (LDL) (high fat-fed mice [3]): significantly decreased
- triglyceride in the serum (high fat-fed mice [3]): not different from the control group
- mRNA level of UCP1 ([4]; 3T3-L1, different concentrations of ART, Real time qPCR, 18S reference): significantly up-regulated
- cell morphology of 3T3-L1 ([4]; artemether 5, 10 or from Day 0 of differentiation to maturity): exhibited typical brown adipocyte-like characteristics
- anorexia nervosa [5]: would cause anorexia nervosa
